{"source": "patent US4581225A", "about": "“Sustained release intranasal formulation and method of use thereof” (Eli Lilly and Company, priority 1985, dated 1986)", "key": {"[1]": {"details": "background statement; cited from earlier work"}, "[2]": {"system": "catechol-O-methyltransferase", "details": "background statement; cited from earlier work"}, "[3]": {"assay": "dobutamine plasma levels in anesthetized rats after intravenous bolus and intranasal saline solution", "format": "in vivo", "details": "rat", "experimental": "According to the present invention, it has been unexpectedly discovered that a catecholamine can be formulated for nasal administration and upon administration achieve equivalent bioavailability as compared to intravenous administration. The purpose of the following study is to examine the bioavailability of the catecholamine dobutamine when administered intranasally and intravenously.\nSix male rats weighing 280 g were anesthetized with sodium pentobarbital (50 mg/kg I.P.). Three rats were dosed intravenously with dobutamine hydrochloride at 2.5 mg/kg. Blood samples were taken at 0.5, 2, 4, 6, 10, 15, 20 and 30 minutes for dobutamine plasma analysis. The three remaining rats received dobutamine at 2.5 mg/kg intranasally in a saline solution. Blood samples from these rats were taken at 1, 5, 10, 20, 30, 60 and 120 minutes.\nAs is known, the one time intravenous administration of dobutamine hydrochloride at 2.5 mg/kg produced a very high dobutamine blood level (greater than 1000 ng/ml) within 30 seconds after administration. The duration of dobutamine in the blood as a result of this method of administration was brief however, lasting only for a period of approximately 30 minutes. For comparison, 1.456 mg of dobutamine hydrochloride was dissolved in 0.2 ml of saline solution and 0.1 ml of this solution was administered intranasally to a 291 g rat to provide a dose of 2.5 mg/kg. […] The intranasal delivery of dobutamine produced a moderate dobutamine blood level of 100 ng/ml after 20 minutes.\nThe area under the curve (AUC) was calculated with computer assistance employing the trapezoidal method for each route of administration."}}, "note": "Where a name gives a salt, the structure may show the parent alone."}
{"smiles": "CC(CCc1ccc(O)cc1)NCCc1ccc(O)c(O)c1", "note": "(racemic) [dobutamine, (+,-) 4-[2-[[3-(p-hydroxyphenyl)-1-methylpropyl]amino]ethyl]pyrocatechol]", "values": [{"measurement": "half-life in the body", "setting": "[1]", "value": 2, "unit": "min"}, {"measurement": "biotransformation by catechol-O-methyltransferase", "setting": "[2]", "value": "very rapidly biotransformed"}]}
{"smiles": "CC(CCc1ccc(O)cc1)NCCc1ccc(O)c(O)c1", "note": "(centres unmarked) [dobutamine hydrochloride]", "values": [{"measurement": "concentration at 20 min", "setting": "[3]; blood, intranasal saline solution 2.5 mg/kg, after 20 minutes, read-out: dobutamine blood level", "value": 100, "unit": "ng/mL"}, {"measurement": "concentration at 0.5 min", "setting": "[3]; blood, intravenous bolus 2.5 mg/kg, within 30 seconds after administration, average of three, read-out: dobutamine blood level", "value": "> 1000", "unit": "ng/mL"}, {"measurement": "AUC at 0.5 h", "setting": "[3]; plasma, IV bolus 2.5 mg/kg, trapezoidal method, sampled 0.5-30 minutes, read-out: Area Under the Curve (AUC) (converted)", "value": 37.1, "unit": "ng·h/mL"}, {"measurement": "AUC at 2 h", "setting": "[3]; plasma, intranasal saline solution 2.5 mg/kg, trapezoidal method, sampled 1-120 minutes, read-out: Area Under the Curve (AUC) (converted)", "value": 188, "unit": "ng·h/mL"}, {"measurement": "persistence of effective blood level", "setting": "[3]; intranasal saline solution 2.5 mg/kg, after two hours", "value": "effective blood level remained after two hours"}, {"measurement": "duration of dobutamine in the blood", "setting": "[3]; intravenous bolus 2.5 mg/kg", "value": "approximately 30 minutes"}]}
